{
  "source": "patent US11969440B2",
  "about": "“Metal (hydr)oxide composite comprising poorly soluble drug, method for manufacturing same, and pharmaceutical composition comprising same” (priority 2020, dated 2024)",
  "key": {"[1]": {"conditions": "single oral 40 mg/kg, MgO:HPMC compositions of Comparative Examples 2 to 4, FIG. 41 to 43"}, "[2]": {"conditions": "cited from earlier work"}},
  "data": [
    {"smiles": "O=c1[nH]cc(F)c(=O)[nH]1", "note": "[Example 5-FU, 5-FU]", "values": [
      {"measurement": "bioavailability of the compound as MgO composite versus the compound alone", "setting": "[1]", "result": "not improved"},
      {"measurement": "solubility in water", "setting": "[2]", "result": 12.2, "unit": "mg/mL"}
    ]}
  ]
}
